These are literature values, as cited in EP0200541B1, “Immunochemical method and analytical composition and element for determination of creatine kinase-MB” (EASTMAN KODAK COMPANY (a New Jersey corporation), priority 1985, dated 1986).

The subject of one series is total AK. As to conditions: AMP:ADP molar ratio of 10:1.
For another series, the target named is CK-MB (Homo sapiens, UniProt P06732+P12277). Conditions: 0.5-1 millimolar DAPP.
Another series concerns the target T1, muscle AK (Homo sapiens, UniProt P00568).
T1 sequence (P00568 1-194): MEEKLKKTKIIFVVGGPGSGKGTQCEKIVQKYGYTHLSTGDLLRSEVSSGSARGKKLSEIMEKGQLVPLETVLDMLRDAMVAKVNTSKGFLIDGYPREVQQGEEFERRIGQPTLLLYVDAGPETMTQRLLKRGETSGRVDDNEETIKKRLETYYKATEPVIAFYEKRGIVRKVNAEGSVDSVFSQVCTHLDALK
As to conditions: 0.01 millimolar DAPP.

Another series addresses T2, erythrocyte AK (Homo sapiens, UniProt P00568).
T2 sequence (P00568 1-194): T1 sequence (P00568 1-194)
Conditions: 0.01 millimolar DAPP.

The target in the next series is liver AK (Homo sapiens, UniProt P54819).

Structures are written as SMILES.

Chain of CK-MB (P06732 whole entry): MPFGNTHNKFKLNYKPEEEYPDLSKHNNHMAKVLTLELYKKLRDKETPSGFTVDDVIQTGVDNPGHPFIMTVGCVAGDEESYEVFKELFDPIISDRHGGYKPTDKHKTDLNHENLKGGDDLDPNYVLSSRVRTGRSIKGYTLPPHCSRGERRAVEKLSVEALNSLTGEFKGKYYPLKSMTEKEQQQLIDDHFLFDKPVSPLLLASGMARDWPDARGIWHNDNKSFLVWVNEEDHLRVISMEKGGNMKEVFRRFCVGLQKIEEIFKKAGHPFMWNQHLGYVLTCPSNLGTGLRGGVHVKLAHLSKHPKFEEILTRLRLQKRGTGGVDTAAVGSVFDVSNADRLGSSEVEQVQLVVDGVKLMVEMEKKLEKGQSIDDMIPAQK
Chain of CK-MB (P12277 whole entry): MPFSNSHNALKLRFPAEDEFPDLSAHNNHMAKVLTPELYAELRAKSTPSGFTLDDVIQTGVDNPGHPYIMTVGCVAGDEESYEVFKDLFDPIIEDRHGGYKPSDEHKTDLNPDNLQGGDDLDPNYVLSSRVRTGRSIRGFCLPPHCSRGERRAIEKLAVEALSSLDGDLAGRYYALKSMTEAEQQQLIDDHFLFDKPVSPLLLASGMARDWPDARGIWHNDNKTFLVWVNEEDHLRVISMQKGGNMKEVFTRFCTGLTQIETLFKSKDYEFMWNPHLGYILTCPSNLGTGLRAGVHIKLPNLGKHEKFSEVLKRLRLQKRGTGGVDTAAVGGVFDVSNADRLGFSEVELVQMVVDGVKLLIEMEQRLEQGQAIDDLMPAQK

`Nc1ncnc2c1ncn2[C@@H]1O[C@H](COP(=O)(O)O)[C@@H](O)[C@H]1O` [AMP, adenosine-5'-monophosphate]: the “total AK inhibited” value in the series with total AK is given as 95%. Further, the “reduction of the activity of total CK” value in the series with total CK (AMP:ADP molar ratio of 10:1) is 15-20%.
Regarding `Nc1ncnc2c1ncn2[C@@H]1O[C@H](COP(=O)(O)OP(=O)(O)OP(=O)(O)OP(=O)(O)OP(=O)(O)OC[C@H]2O[C@@H](n3cnc4c(N)ncnc43)[C@H](O)[C@@H]2O)[C@@H](O)[C@H]1O` [DAPP, P^1,P^5-di(adenosine-5')pentaphosphate], on CK-MB, the “reduction of the activity of CK-MB” value is “at least 5%”. For the same molecule, on muscle AK, the “muscle AK inhibited” value was 97%. Further, in the series on total CK (0.5-1 millimolar DAPP alone), the “reduction in CK activity” value is 5%. For the same molecule, the “erythrocyte AK inhibited” value at erythrocyte AK is 97%. The liver isoenzyme inhibited on liver AK (0.01 millimolar DAPP) is reported as 80%. Further, the “activity of liver AK inhibited” value at liver AK (0.5-1 millimolar DAPP alone) is given as “up to 97%”.
